# Several values for one entry are separate records, joined by “and”; a condition that tells them apart may be missing. Identical values can stand only once.
# Experiments:
# [1] = system: patients with either rheumatoid or psoriatic arthritis; assay: Retrospective community-based study of etanercept with adjunctive neuroregulatory medications, 28-joint count (swollen and tender); format: in vivo, human
# Description: A retrospective, community-based study assessed consecutive patients initiating biologic treatment of inflammatory arthritis. Improved outcomes were measured by a 28-joint count (swollen and tender). […] Consecutive patients with either rheumatoid or psoriatic arthritis initiated etanercept (25 mg/BIW). For partial response, neuroregulatory medications were added. Neuroregulatory medication options included bedtime dosing of either lorazepam or clonazepam, pramipexole, trazodone, other antidepressants and anticonvulsants.
# Primary outcome: “≥70% reduction in 28-joint count (tender and swollen). Statistical analysis: LOCF and logistic regression (see data in FIGS. 1 and 2).
# [2] = system: inflammatory joint diseases like rheumatoid arthritis (RA) and psoriatic arthritis; conditions: etanercept in inflammatory joint diseases (RA, psoriatic arthritis); background figure; cited from earlier work
substance,measurement,setting,value
etanercept,patients in whom NSAIDs were discontinued,[1]; 14 of 29 on NSAIDs at baseline,48%
same,patients in whom other DMARDs were discontinued,[1]; 22 of 28 on other DMARDs at baseline,79%
same,patients in whom methotrexate was discontinued,[1]; 24 of 32 on methotrexate at baseline (19.14 mg/wk),75%
same,patients in whom prednisone was discontinued,[1]; 26 of 42 on prednisone at baseline (6.7 mg/d),62%
same,patients achieving ≥70% reduction in joint count,"[1]; by BOCF, 66 patients, etanercept 25 mg BIW, neuroregulatory medications added for partial response",74%
same,"patients achieving ≥70% reduction in 28-joint count (tender and swollen), primary outcome","[1]; by LOCF, 52/66 patients, etanercept 25 mg BIW, neuroregulatory medications added for partial response (36/66), p<0.001",79%
same,mean 28-joint count after addition of etanercept,"[1]; decreased from baseline 11.6±9.0, 66 patients, etanercept 25 mg BIW, neuroregulatory medications added for partial response",1.3 and 1.3±4.3
same,patients achieving American College of Rheumatology 70% improvement (ACR70) response,[2],About 27%
same,patients receiving disease activity score (DAS) remission response,[2],20.5%
